Results from US20160166604A1, “Thiol-Sensitive Positive Inotropes” (priority 2005, published 2016).
Several values for one entry are separate records, joined by “and”; a condition that tells them apart may be missing. Equal entries are not always repeated.

Key:
cAMP = cAMP FRET imaging in neonatal rat cardiomyocytes; format: cell-based; conditions: applied after AS
Experimental: Primary cultures of cardiac ventricular myocytes from 1-3 days old Sprague Dawley rats (Charles River Laboratories, Wilmington, Mass.) were prepared as described. Dostal, D. E. et al., Am. J. Physiol., 263, […]-[…] (1992). Cells were transfected with a FRET-based sensor for cAMP (Zaccolo, M. et al., Science, 295, 1711-1715 (2002)) and imaged 48 hrs after transfection. During the experiments, cells were continuously perfused with HEPES buffered Ringer's modified saline (1 mmol/LCaCl2) at room temperature. Cells were imaged on an inverted Olympus IX50 microscope upon excitation at 430 nm. Mongillo, M. et al., Circ. Res., 98, 226-234 (2006). Image analysis was performed by using ImageJ (Rasband, W. S., ImageJ, National Institutes of Health, Bethesda, Md., USA). At each time point, FRET values were measured as the 480 nm/535 nm emission ratio intensity (R) and were normalized to the 480 nm/535 nm value at time 0s (R0). Agents that increase peak Ca^2+ transients coupled to increased sarcomere shortening often do so via a rise in intracellular cAMP and subsequent activation of protein kinase A ([…]. et al., Curr. Med. Chem., 10, 967-981 (2003). To test whether this applied to AS, real-time imaging of cAMP on transfected neonatal rat cardiomyocytes was performed with a cAMP FRET-probe. Zaccolo, M. et al., Science, 295, 1711-1715 (2002). Upon exposure to 1 mM AS, the FRET signal was unchanged (0.3%±0.1%, n=23, p=NS), whereas subsequent application of norepinephrine (10 μM) or phosphodiesterase inhibitor IBMX (100 μM) both increased it by 12% (p<10^-6) (FIG. 2A). Pre-treatment of adult mouse myocytes with the PKA inhibitor […]

cardiomyocytes = assay: Intracellular thiol quantitation (glutathione S-bimane fluorescence, two-photon microscopy); format: cell-based, mouse; conditions: GSH (ethyl ester) 4 mM for 3 hrs, n=40
Description: The cationic potentiometric fluorescent dye tetramethylrhodamine methyl ester (TMRM) was used to monitor changes in ΔΨm as previously described. Cortassa, S. et al., Biophys. J., 87, 2060-2073 (2004). The production of the fluorescent glutathione adduct GSB from the reaction of cell permeant monochlorobimane (MCB) with reduced glutathione (GSH), catalyzed by glutathione S-transferase, was used to measure intracellular glutathione levels, as described. Cortassa, S. et al., Biophys. J., 87, 2060-2073 (2004). Experimental recordings started after exposing the cardiomyocytes to an experimental Tyrode's solution. […] Images were recorded using a two photon laser scanning microscope (Bio-Rad MRC-1024MP) with excitation at 740 nm (Tsunami Ti:Sa laser, Spectra-Physics). The red emission of […] was collected at 605±25 nm and the blue fluorescence of GSB was collected at its maximal emission (480 nm). Images were analyzed offline using ItnageJ software (Wayne Rasband, National Institutes of Health, http://rsb.info.nih.gov/ij/). […]
HNO targets thiol groups on selective proteins. […] Pre-treatment with GSH enhanced intracellular thiol equivalents (+6±1.5% in fluorescence a.u. vs., controls, n=40, p<0.05), as determined by fluorescence assay of glutathione S-bimane production using two-photon microscopy. […]

CC(C)Cn1c(=O)n(C)c(=O)c2[nH]cnc21 [IBMX]
increase of cAMP FRET signal (cAMP; IBMX 100 μM): 12%

CCOC(=O)CNC(=O)[C@H](CS)NC(=O)CC[C@H](N)C(=O)O [GSH, GSH ethyl ester]
increase of intracellular thiol equivalents (fluorescence a.u. vs. controls) (cardiomyocytes): 6% and 6±1.5%

NC[C@H](O)c1ccc(O)c(O)c1 [norepinephrine]
increase of cAMP FRET signal (cAMP; norepinephrine 10 μM): 12%
